Laboratory results from ChEMBL document CHEMBL1201862, “PubChem BioAssay data set” (2004).
The source made the active and inactive calls.

Experiments:
[1] = test system: Streptococcus sp. 'group A'; assay: growth inhibition of control SK(-) GAS strain, dose response, counter-screen for streptokinase expression inhibitor project, luminescence, kanamycin, BacTiterGlo, confirmation (AID 1900); format: functional, organism-based
Streptokinase A = target: T1, Streptokinase A (Streptococcus pyogenes serotype M1, UniProt P10520); assay: S. pyogenes streptokinase expression inhibitors, potency, dose response, plasminogen activation absorbance, OD405 (AID 1914); format: functional, Streptococcus pyogenes M1 GAS;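 note: secreted streptokinase activity via plasminogen activation per viability signal from cell pellet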
T1 sequence (P10520 whole entry): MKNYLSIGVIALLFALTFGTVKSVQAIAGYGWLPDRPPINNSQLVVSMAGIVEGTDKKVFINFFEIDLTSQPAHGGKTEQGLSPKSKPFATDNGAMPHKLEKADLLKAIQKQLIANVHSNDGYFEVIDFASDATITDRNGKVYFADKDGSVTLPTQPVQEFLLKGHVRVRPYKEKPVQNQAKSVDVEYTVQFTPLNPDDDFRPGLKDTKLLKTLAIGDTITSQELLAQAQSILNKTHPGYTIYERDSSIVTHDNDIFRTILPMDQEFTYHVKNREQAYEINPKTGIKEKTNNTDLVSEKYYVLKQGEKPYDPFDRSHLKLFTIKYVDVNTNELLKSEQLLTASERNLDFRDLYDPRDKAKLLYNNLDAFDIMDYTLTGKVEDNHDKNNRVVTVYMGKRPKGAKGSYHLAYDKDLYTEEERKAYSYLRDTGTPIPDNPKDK

Streptococcus = assay: Group A Streptococcus viability loss, dose response, counter-screen for streptokinase expression inhibitor project, luminescence, BacTiterGlo (AID 1915); format: functional, organism-based;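 note: potency for reduction of bacterial viability or growth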
[2] = target: T2, Replicative DNA helicase DnaB (Mycobacterium tuberculosis, UniProt P9WMR3); assay: DnaB intein splicing inhibitors, dose response, biochemical, cell-free fluorescence (AID 449749); format: functional
T2 sequence (P9WMR3 whole entry): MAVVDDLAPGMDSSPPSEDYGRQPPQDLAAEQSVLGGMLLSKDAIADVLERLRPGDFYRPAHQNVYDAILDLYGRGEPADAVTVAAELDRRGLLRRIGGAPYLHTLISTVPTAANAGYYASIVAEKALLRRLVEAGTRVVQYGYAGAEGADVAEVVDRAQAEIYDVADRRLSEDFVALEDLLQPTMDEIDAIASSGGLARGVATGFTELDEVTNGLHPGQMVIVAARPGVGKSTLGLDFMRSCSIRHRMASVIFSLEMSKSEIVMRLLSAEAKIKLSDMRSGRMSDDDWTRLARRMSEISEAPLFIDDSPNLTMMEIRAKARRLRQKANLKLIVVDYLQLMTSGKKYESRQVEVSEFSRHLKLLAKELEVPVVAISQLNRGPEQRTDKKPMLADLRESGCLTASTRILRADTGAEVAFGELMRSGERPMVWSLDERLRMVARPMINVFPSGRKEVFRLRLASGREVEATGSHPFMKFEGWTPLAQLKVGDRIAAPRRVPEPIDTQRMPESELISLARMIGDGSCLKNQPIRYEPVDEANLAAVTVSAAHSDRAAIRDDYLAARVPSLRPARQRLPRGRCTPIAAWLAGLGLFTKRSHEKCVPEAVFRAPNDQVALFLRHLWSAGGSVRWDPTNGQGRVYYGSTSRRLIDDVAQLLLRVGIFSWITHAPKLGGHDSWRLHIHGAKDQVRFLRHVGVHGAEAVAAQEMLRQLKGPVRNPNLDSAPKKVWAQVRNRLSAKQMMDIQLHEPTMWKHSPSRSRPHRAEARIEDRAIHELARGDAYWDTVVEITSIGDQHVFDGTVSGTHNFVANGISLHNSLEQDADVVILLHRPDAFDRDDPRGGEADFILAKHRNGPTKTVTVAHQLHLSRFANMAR

Protein RecA = target: T3, Protein RecA (Mycobacterium tuberculosis, UniProt P9WHJ3); assay: Fluorescence Cell-Free Homogeneous Dose Retest to Identify Inhibitors of RecA-Intein Splicing Activity. [Related pubchem assays (depositor defined):AID2097, AID2223, AID489010, AID492950]; format: functional
T3 sequence (P9WHJ3 whole entry): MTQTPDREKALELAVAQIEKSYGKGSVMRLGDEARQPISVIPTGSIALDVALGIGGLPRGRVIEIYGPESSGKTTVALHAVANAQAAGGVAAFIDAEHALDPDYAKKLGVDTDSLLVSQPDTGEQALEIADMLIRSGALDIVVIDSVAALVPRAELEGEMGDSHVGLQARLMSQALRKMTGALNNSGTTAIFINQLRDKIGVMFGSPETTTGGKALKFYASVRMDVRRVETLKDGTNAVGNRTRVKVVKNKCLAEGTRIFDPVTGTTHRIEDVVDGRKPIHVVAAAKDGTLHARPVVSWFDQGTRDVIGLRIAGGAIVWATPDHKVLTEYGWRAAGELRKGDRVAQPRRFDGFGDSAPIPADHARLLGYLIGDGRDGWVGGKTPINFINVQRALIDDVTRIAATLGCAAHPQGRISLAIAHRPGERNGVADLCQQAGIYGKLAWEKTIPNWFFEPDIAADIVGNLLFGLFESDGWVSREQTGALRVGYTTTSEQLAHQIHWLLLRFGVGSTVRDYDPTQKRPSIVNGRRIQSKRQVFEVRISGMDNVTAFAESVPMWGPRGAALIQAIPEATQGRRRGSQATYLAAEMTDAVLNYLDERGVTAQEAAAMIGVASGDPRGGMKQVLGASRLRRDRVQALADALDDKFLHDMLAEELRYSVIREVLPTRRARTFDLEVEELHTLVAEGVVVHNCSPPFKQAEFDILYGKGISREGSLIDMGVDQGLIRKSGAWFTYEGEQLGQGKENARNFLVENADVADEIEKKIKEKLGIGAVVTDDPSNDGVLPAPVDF

[3] = HEp-2 cell cytotoxicity, dose response, cytotoxicity control for RSV inhibitor project, HTS (AID 2410); format: functional; conditions: human respiratory syncytial virus
[4] = target: T4, Heat shock factor protein 1 (Mus musculus, UniProt P38532); assay: HSF1 potentiators in luciferase reporter cells, confirmation, cell-based, NIH3T3, luminescence, dose retest (AID 435004); format: functional;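 note: stress induced by proteasome inhibitor MG132 added 30 min after compound; luciferase reporter driven by HSF1 response element in NIH3T3 cells; actives raise luminescence as potentiators of the MG132 stress response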
T4 sequence (P38532 whole entry): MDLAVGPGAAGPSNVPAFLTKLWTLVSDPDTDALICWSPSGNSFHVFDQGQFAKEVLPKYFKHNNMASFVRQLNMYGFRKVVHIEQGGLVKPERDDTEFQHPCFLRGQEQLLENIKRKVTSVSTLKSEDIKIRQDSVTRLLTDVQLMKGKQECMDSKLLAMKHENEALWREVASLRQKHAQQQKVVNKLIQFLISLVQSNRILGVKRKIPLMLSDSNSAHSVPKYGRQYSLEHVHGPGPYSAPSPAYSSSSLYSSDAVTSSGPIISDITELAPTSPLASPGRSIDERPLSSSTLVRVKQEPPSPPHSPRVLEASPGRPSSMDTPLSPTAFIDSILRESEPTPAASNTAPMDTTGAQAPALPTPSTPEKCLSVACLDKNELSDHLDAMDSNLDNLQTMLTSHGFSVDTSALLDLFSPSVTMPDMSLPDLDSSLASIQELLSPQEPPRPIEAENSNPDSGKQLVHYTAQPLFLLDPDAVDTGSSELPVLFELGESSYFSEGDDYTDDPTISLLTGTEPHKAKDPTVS

Cytochrome P450 2C9 = Cytochrome P450 2C9 (Homo sapiens, UniProt P11712)
Sequence of Cytochrome P450 2C9 (P11712 whole entry): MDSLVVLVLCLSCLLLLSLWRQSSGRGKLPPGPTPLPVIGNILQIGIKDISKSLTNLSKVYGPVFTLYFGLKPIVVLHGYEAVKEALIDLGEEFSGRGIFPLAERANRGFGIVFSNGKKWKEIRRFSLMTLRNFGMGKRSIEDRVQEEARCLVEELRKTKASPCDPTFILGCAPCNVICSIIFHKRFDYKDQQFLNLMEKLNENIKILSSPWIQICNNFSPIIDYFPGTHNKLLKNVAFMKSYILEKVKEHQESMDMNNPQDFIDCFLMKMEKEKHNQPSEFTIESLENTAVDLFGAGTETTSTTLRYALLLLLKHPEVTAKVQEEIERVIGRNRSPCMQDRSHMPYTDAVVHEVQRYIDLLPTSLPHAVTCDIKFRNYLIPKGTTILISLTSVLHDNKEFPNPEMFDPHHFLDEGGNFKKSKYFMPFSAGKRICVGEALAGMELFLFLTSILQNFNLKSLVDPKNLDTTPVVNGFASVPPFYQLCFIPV

Cytochrome P450 2D6 = Cytochrome P450 2D6 (Homo sapiens, UniProt P10635);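 note: CYP2D6 member of a cytochrome P450 panel assay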
Sequence of Cytochrome P450 2D6 (P10635 whole entry): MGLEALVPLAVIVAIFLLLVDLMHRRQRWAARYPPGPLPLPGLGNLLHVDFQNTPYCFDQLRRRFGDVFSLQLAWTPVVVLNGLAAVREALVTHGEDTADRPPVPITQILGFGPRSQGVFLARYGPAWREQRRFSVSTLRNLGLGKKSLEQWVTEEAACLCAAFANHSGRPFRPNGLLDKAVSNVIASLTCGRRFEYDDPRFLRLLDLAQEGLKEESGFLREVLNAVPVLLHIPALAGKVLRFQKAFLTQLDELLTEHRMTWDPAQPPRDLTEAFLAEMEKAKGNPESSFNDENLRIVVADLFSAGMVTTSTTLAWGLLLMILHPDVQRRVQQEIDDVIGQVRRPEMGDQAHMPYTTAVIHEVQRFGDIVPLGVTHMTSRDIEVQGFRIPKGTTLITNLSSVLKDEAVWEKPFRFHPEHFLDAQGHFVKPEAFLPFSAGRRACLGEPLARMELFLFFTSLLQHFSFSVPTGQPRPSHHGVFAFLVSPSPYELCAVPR

[5] = target: T5, Corticotropin-releasing factor receptor 2/Corticotropin-releasing factor-binding protein (Homo sapiens, UniProt P24387+Q13324); assay: activators of CRF receptor 2 with binding protein – uHTS hits, confirmation (AID 602473); format: functional; conditions: read-out: EC50_Mean
T5 sequence (Q13324 whole entry): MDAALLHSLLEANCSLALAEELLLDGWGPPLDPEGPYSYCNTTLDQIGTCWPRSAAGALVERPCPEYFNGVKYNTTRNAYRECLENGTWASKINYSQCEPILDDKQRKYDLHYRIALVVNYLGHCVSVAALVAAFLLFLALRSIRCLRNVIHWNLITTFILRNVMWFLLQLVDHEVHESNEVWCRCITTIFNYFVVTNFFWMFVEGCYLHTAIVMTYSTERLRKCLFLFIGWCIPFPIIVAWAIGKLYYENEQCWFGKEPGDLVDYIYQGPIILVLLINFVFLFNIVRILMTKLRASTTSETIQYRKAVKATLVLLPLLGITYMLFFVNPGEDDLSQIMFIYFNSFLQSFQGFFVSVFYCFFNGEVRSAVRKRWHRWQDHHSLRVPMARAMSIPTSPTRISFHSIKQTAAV
T5 sequence (P24387 whole entry): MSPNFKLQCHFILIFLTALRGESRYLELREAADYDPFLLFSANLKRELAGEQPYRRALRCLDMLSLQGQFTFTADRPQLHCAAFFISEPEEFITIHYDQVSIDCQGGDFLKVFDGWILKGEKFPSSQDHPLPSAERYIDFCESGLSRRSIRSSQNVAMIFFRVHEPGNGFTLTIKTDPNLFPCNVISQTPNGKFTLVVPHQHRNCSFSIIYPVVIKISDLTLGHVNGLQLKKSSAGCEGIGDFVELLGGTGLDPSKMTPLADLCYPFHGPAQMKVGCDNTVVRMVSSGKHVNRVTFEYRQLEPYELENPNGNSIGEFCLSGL

| SMILES | AC50 [2] | EC50 (Protein RecA) | CC50 [3] | further results |
| --- | --- | --- | --- | --- |
| O=C(CNC(=O)c1ccc(F)cc1)N/N=C/c1cc(Br)ccc1OCc1ccccc1 | – | – | – | EC50 [1]: 10.3 µM (active); EC50 (Streptokinase A): > 150 µM (not active); EC50 (Streptococcus): 32.6 µM (active) |
| Clc1ccc(SCc2cc(Cl)nc(-c3ccccc3)n2)cc1 | – | – | – | EC50 [1]: > 150 µM (not active); EC50 (Streptokinase A): 17 µM (active); EC50 (Streptococcus): > 150 µM (not active) |
| N#CC1=C(N)N(c2ccccc2)C(c2cccc([N+](=O)[O-])c2)C1(C#N)C#N (stereo not drawn) | 5.73 µM (active) | 12.8 µM (active) | – | – |
| COc1ccc(-c2[nH]nc3c2C(c2ccoc2)C(C#N)=C(N)O3)cc1 (stereo not drawn) | 1.39 µM (active) | 0.548 µM (active) | – | – |
| CC(C)(C)C(=O)Nc1cccc(-c2cc(-c3c(Cl)cccc3Cl)no2)c1 | – | – | 12.9 µM (active) | EC50 [4]: > 260 µM (inactive) |
| Cc1[nH]n(-c2ccccc2)c(=O)c1C=C1C(=O)NC(=O)NC1=O | 16.8 µM (active) | 7.39 µM (active) | – | – |
| O=[N+]([O-])c1cc(C(F)(F)F)ccc1SCC(O)CO (stereo not drawn) | – | – | > 50 µM (active) | – |
| CCCc1n[nH]c2c1C(c1cc(OC)cc(OC)c1)C(C#N)=C(N)O2 (stereo not drawn) | 1.27 µM (active) | 1.51 µM (active) | – | – |
| COC(=O)c1[nH]c2ccc(Br)cc2c1NC(=O)CN1CCCc2ccccc21 | – | – | 41.9 µM (active) | – |
| COc1ccc(N(C)C(=O)c2cc3c(s2)-c2c(C)cccc2OC3)c(OC)c1 | 74.5 µM (active) | 133 µM (inconclusive) | 19.6 µM (active) | – |
| O=C(Nc1cnc(O)nc1O)c1cccc(F)c1 | – | – | 18.6 µM (active) | – |
| Cc1noc(C)c1COC(=O)CCN1c2ccccc2Sc2ccccc21 | – | – | 37.9 µM (active) | – |
| O=C(Cc1ccccc1)N/N=C/c1ccccn1 | – | – | – | EC50 [1]: > 150 µM (not active); EC50 (Streptokinase A): > 150 µM (not active); EC50 (Streptococcus): > 150 µM (not active) |
| CCCc1n[nH]c2c1C(c1ccsc1)C(C#N)=C(N)O2 (stereo not drawn) | 16.5 µM (active) | 2.28 µM (active) | – | – |
| c1ccc2c(CSCc3cccc4ccccc34)cccc2c1 | – | – | – | AC50 (Cytochrome P450 2C9): 3.16 µM (inconclusive) |
| Cc1ccc(NC(=O)c2sc3ncnc(N4CCN(c5ccccn5)CC4)c3c2C)c(C)c1 | 15.7 µM (active) | > 380 µM (inactive) | – | – |
| Cc1nc2ccc(S(=O)(=O)NC(CC(C)C)C(=O)O)cc2s1 (stereo not drawn) | – | – | – | AC50 (Cytochrome P450 2C9): 12.6 µM (inconclusive) |
| Brc1ccc2c(c1)C(c1ccc(N3CCOCC3)cc1)=NNC(c1cccs1)=N2 | – | – | 32.1 µM (active) | – |
| CCOc1ccc(S(=O)(=O)N2CCN(c3ccccc3)CC2)c2cccnc12 | – | – | 30.9 µM (active) | – |
| O=C(N/C=C/c1ccccc1)Nc1ccc(Cl)cc1 | – | – | 20.8 µM (active) | – |
| O=C(CSc1nnc(CNC(=O)c2c(F)cccc2F)o1)NCc1ccccc1 | – | – | – | EC50 [1]: > 150 µM (not active); EC50 (Streptokinase A): > 150 µM (not active); EC50 (Streptococcus): > 150 µM (not active) |
| C/C(=N\Nc1cccc([N+](=O)[O-])c1)c1cc(F)ccc1O | – | – | > 50 µM (active) | – |
| CC(=O)Oc1ccc(N(C(C)=O)S(=O)(=O)c2ccc3ccccc3c2)cc1Br | 9.4 µM (active) | 17.3 µM (active) | – | – |
| N[C@@H]1C[C@H]1c1ccccc1.N[C@H]1C[C@@H]1c1ccccc1 [TRANYLCYPROMINE] | – | – | – | AC50 (Cytochrome P450 2D6): 31.6 µM (inconclusive); AC50 (Cytochrome P450 2C9): 39.8 µM (inconclusive) |
| O=C1/C(=C/c2ccc3c(c2)OCO3)CCC/C1=C\c1ccc2c(c1)OCO2 | > 380 µM (inactive) | > 380 µM (inactive) | – | – |
| COc1cc(Cn2nnc3ccccc32)cc(Br)c1O | – | – | 23.2 µM (active) | – |
| O=C(c1ccc2nc(Cc3cccc(Cl)c3)oc2c1)N1CCC(O)CC1 | 357 µM (active) | > 380 µM (inactive) | – | – |
| O=C1C=C/C(=N/c2cccc3c(/N=C4\C=CC(=O)O4)cccc23)O1 | – | – | – | AC50 (Cytochrome P450 2C9): 6.31 µM (inconclusive) |
| Cc1ccc(S(=O)(=O)Oc2ccc(C(c3c(C)n[nH]c3O)c3c(C)n[nH]c3O)cc2)cc1 | 7.06 µM (active) | 46.2 µM (active) | – | EC50 [5]: > 53 µM (inactive) |
| Cc1oc2cc(O)cc(C)c2c(=O)c1-c1cnn(-c2ccccc2)c1 | – | – | 15.6 µM (active) | – |
